Test results published in ChEMBL document CHEMBL5614402, “Discovery of novel pyrazolo[1,5-a]pyrimidine derivatives as potent reversal agents against ABCB1-mediated multidrug resistance” (Eur J Med Chem, 2024).
pIC50: −log10 of the molar value. Activity calls are given as the source filed them. No cut-off for these calls is given here.

Legend:
MCF7 [1] = assay: Antiproliferative activity against human MCF7 cells incubated for 72 hrs by MTT assay; format: functional, cell-based; conditions: MCF7, 72 h
NCI/ADR-RES [2] = assay: Antiproliferative activity against human MCF7ADR cells incubated for 72 hrs by MTT assay; format: functional, cell-based
MCF7 [3] = assay: Antiproliferative activity against human MCF7 cells assessed as survival rate at 5 uM incubated for 72 hrs by MTT assay; format: functional; conditions: read-out: Survival
NCI/ADR-RES [4] = assay: Antiproliferative activity against human MCF7ADR cells assessed as survival rate at 5 uM incubated for 72 hrs by MTT assay; format: functional; conditions: read-out: Survival
NCI/ADR-RES [5] = assay: Reversal of paclitaxel resistance in human MCF7ADR cells assessed as reduction in paclitaxel IC50 at 5 uM pretreated with compound for 4 hrs followed by paclitaxel addition and measured after 72 hrs by MTT assay (reference value: 6.68 +/- 0.35 microM); format: functional, cell-based
NCI/ADR-RES [6] = assay: Reversal of paclitaxel resistance in human MCF7ADR cells assessed as reversal fold by measuring ratio of paclitaxel IC50 to paclitaxel IC50 in presence of test compound at 5 uM incubated for 72 hrs by MTT assay; format: functional
Tubulin (Homo sapiens) = Tubulin (Homo sapiens) (UniProt P68371+Q9H4B7+P0DPH7+P68366+Q13509+Q71U36+P04350+Q3ZCM7+P07437+P68363+Q9BQE3+Q6PEY2+Q13885+Q9BVA1+Q9BUF5); assay: Inhibition of tubulin depolymerization in human MCF7ADR cells assessed as change in microtubule morphology at 10 nM incubated for 72 hrs; format: cell-based
NCI/ADR-RES [7] = assay: Induction of apoptosis in human MCF7ADR cells assessed as viable cells at 10 nM by Annexin V-FITC and propidium iodide staining based flow cytometry analysis (reference value: 85.75%); format: functional; conditions: read-out: Activity
NCI/ADR-RES [8] = assay: Induction of apoptosis in human MCF7ADR cells assessed as early apoptotic cells at 10 nM by Annexin V-FITC and propidium iodide staining based flow cytometry analysis (reference value: 3.87%); format: functional
NCI/ADR-RES [9] = assay: Induction of apoptosis in human MCF7ADR cells assessed as late apoptotic cells at 10 nM by Annexin V-FITC and propidium iodide staining based flow cytometry analysis (reference value: 7.24%); format: functional
NCI/ADR-RES [10] = assay: Induction of apoptosis in human MCF7ADR cells assessed as necrotic cells at 10 nM by Annexin V-FITC and propidium iodide staining based flow cytometry analysis (reference value: 3.14%); format: functional
MCF7 [11] = assay: Reversal of paclitaxel resistance in human MCF7 cells assessed as reduction in paclitaxel IC50 at 5 uM pretreated with compound for 4 hrs followed by paclitaxel addition and measured after 72 hrs by MTT assay (reference value: 2.60 +/- 0.36 nM); format: functional, cell-based
MCF7 [12] = assay: Reversal of paclitaxel resistance in human MCF7 cells assessed as reduction in paclitaxel IC50 at 10 uM pretreated with compound for 4 hrs followed by paclitaxel addition and measured after 72 hrs by MTT assay (reference value: 2.60 +/- 0.36 nM); format: functional, cell-based
NCI/ADR-RES [13] = assay: Reversal of paclitaxel resistance in human MCF7ADR cells assessed as reduction in paclitaxel IC50 at 10 uM pretreated with compound for 4 hrs followed by paclitaxel addition and measured after 72 hrs by MTT assay (reference value: 6.68 +/- 0.35 microM); format: functional, cell-based
MCF7 [14] = assay: Reversal of paclitaxel resistance in human MCF7 cells assessed as reversal fold by measuring ratio of paclitaxel IC50 to paclitaxel IC50 in presence of test compound at 5 uM incubated for 72 hrs by MTT assay; format: functional
MCF7 [15] = assay: Reversal of paclitaxel resistance in human MCF7 cells assessed as reversal fold by measuring ratio of paclitaxel IC50 to paclitaxel IC50 in presence of test compound at 10 uM incubated for 72 hrs by MTT assay; format: functional
NCI/ADR-RES [16] = assay: Reversal of paclitaxel resistance in human MCF7ADR cells assessed as reversal fold by measuring ratio of paclitaxel IC50 to paclitaxel IC50 in presence of test compound at 10 uM incubated for 72 hrs by MTT assay; format: functional

Compound	pIC50 (MCF7 [1])	pIC50 (NCI/ADR-RES [2])	viability at 5 µM (MCF7 [3]) [%]	viability at 5 µM (NCI/ADR-RES [4]) [%]	pIC50 (NCI/ADR-RES [5])	Ratio (NCI/ADR-RES [6])	inhibition (Tubulin (Homo sapiens))	viability at 0.01 µM (NCI/ADR-RES [7]) [%]	Activity (NCI/ADR-RES [8]) [%]	Activity (NCI/ADR-RES [9]) [%]	Activity (NCI/ADR-RES [10]) [%]	pIC50 (MCF7 [11])	pIC50 (MCF7 [12])	pIC50 (NCI/ADR-RES [13])	Ratio (MCF7 [14])	Ratio (MCF7 [15])	Ratio (NCI/ADR-RES [16])
COc1cc(-c2c(C)nc3cc(-c4ccco4)nn3c2-c2cc(OC)c(OC)c(OC)c2)cc(OC)c1OC	< 4.70	< 4.70	95.1	89.9	7.36	151.81											
COc1cc(-c2c(-c3ccc(Br)cc3)c(C)nc3cc(-c4ccco4)nn23)cc(OC)c1OC	< 4.70	< 4.70	94.5	93.6	5.23	1.14											
COc1cc(-c2c(-c3ccc(Cl)cc3)c(C)nc3cc(-c4ccccc4)nn23)cc(OC)c1OC	< 4.70	< 4.70	94.2	90.3	7.13	90.27											
COc1ccc(-c2c(C)nc3cc(-c4cccs4)nn3c2-c2cc(OC)c(OC)c(OC)c2)cc1	< 4.70	< 4.70	93.6	85.1	7.31	136.32											
COc1ccc(-c2c(C)nc3cc(Br)nn3c2-c2cc(OC)c(OC)c(OC)c2)cc1	< 4.70	< 4.70	95.4	91.2	5.85	4.77											
COc1ccc(-c2c(C)nc3ccnn3c2-c2cc(OC)c(OC)c(OC)c2)cc1	< 4.70	< 4.70	> 99	> 99	5.51	2.14											
COc1ccc(-c2c(C)nc3cc(-c4ccccc4)nn3c2-c2cc(OC)c(OC)c(OC)c2)cc1OC	< 4.70	< 4.70	92.7	89.2	7.32	139.16											
COc1cc(-c2c(C)nc3cc(-c4ccccc4)nn3c2-c2cc(OC)c(OC)c(OC)c2)cc(OC)c1OC	< 4.70	< 4.70	96.2	93.5	7.52	222.66											
COc1ccc(-c2c(C)nc3cc(C)nn3c2-c2cc(OC)c(OC)c(OC)c2)cc1	< 4.70	< 4.70	> 99	95.2	6.09	8.14											
COc1ccc(-c2c(C)nc3cc(C4CC4)nn3c2-c2cc(OC)c(OC)c(OC)c2)cc1	< 4.70	< 4.70	> 99	95.1	6.92	51.28											
CCc1cc2nc(C)c(-c3ccc(OC)cc3)c(-c3cc(OC)c(OC)c(OC)c3)n2n1	< 4.70	< 4.70	> 99	> 99	6.62	27.83											
COc1cc(-c2c(C)nc3cc(C4CC4)nn3c2-c2cc(OC)c(OC)c(OC)c2)cc(OC)c1OC	< 4.70	< 4.70	95.6	90.5	7.00	66.8											
COc1ccc(-c2c(C)nc3cc(-c4cccs4)nn3c2-c2cc(OC)c(OC)c(OC)c2)cc1OC	< 4.70	< 4.70	94.1	94.6	7.51	215.48											
COc1cc(-c2c(-c3ccc(Cl)cc3)c(C)nc3cc(-c4ccco4)nn23)cc(OC)c1OC	< 4.70	< 4.70	95.8	94.7	5.37	1.55											
COc1ccc(-c2c(C)nc3ccnn3c2-c2cc(OC)c(OC)c(OC)c2)cc1OC	< 4.70	< 4.70	> 99	> 99	5.63	2.84											
COc1cc(-c2c(-c3ccc(Br)cc3)c(C)nc3cc(-c4cccs4)nn23)cc(OC)c1OC	4.84	< 4.70	94.8	94.2	7.32	139.16											
COc1cc(-c2c(-c3ccc(Cl)cc3)c(C)nc3cc(-c4cccs4)nn23)cc(OC)c1OC	< 4.70	< 4.70	98.2	94.2	7.09	81.46											
COc1ccc(-c2c(C)nc3cc(-c4ccco4)nn3c2-c2cc(OC)c(OC)c(OC)c2)cc1	5.02	< 4.70	90.8	93.1	7.00	66.8											
COc1cc(-c2c(C)nc3ccnn3c2-c2cc(OC)c(OC)c(OC)c2)cc(OC)c1OC	< 4.70	< 4.70	> 99	> 99	5.67	3.15											
COc1ccc(-c2c(C)nc3cc(-c4ccccc4)nn3c2-c2cc(OC)c(OC)c(OC)c2)cc1	5.10	< 4.70	90.2	89.2	7.32	151.81											
COc1ccc(-c2c(C)nc3cc(C#N)nn3c2-c2cc(OC)c(OC)c(OC)c2)cc1	< 4.70	< 4.70	93.9	90.6	6.21	10.77											
COc1cc(-c2c(-c3ccc(F)cc3)c(C)nc3cc(-c4cccs4)nn23)cc(OC)c1OC	< 4.70	< 4.70	95.6	90.7	6.92	55.67											
COc1cc(-c2c(-c3ccc(F)cc3)c(C)nc3cc(-c4ccco4)nn23)cc(OC)c1OC	< 4.70	< 4.70	91.6	93.8	6.74	37.11											
COc1cc(-c2c(C)nc3cc(C)nn3c2-c2cc(OC)c(OC)c(OC)c2)cc(OC)c1OC	< 4.70	< 4.70	94.4	96.6	6.34	14.52											
CC(=O)O[C@H]1C(=O)[C@@]2(C)[C@H]([C@H](OC(=O)c3ccccc3)[C@]3(O)C[C@H](OC(=O)[C@H](O)[C@@H](NC(=O)c4ccccc4)c4ccccc4)C(C)=C1C3(C)C)[C@]1(OC(C)=O)CO[C@@H]1C[C@@H]2O [PACLITAXEL]							inactive	86.2	4.93	6.48	2.4						
COc1ccc(CCN(C)CCCC(C#N)(c2ccc(OC)c(OC)c2)C(C)C)cc1OC (stereo not drawn) [VERAPAMIL]	< 4.70	< 4.70	> 99	> 99	6.77	39.29						8.99	8.57	7.16	2.55	0.97	96.11
COc1cc(-c2c(-c3ccc(Br)cc3)c(C)nc3cc(-c4ccccc4)nn23)cc(OC)c1OC	< 4.70	< 4.70	95.2	95.1	7.28	126.03											
COc1ccc(-c2c(C)nc3cc(-c4ccco4)nn3c2-c2cc(OC)c(OC)c(OC)c2)cc1OC	< 4.70	< 4.70	92.4	97.1	7.06	76.78											
